The source of these data is US6440984B1, “Use of aryl-substituted pyrimidines as insecticidal and acaricidal agents” (BASF Aktiengesellschaft, priority 1998, dated 2002).

Common to all, as to format: in vivo
The subject of assay [1] is Diabrotica Virgifera Virgifera Leconte, 3rd Instar Western Corn Rootworm (WCR). The assay can be described thus: Western corn rootworm (WCR) soil test, mortality at 5 days. Particulars: rating scale; for pest or weed control at 50 ppm: Diabrotica virgifera, 120 h, read-out: WCR 2^ND-SOIL 50 (ppm). The protocol:
Diabrotica Virgifera Virgifera Leconte, 3rd Instar Western Corn Rootworm (WCR) One cc of fine talc is placed in a 30 mL wide-mouth screw-top glass jar. One mL of the appropriate acetone test solution is pipetted onto the talc so as to provide 1.25 mg of active ingredient per jar. The jars are set under a gentle air flow until the acetone is evaporated. The dried talc is loosened, 1 cc of millet seed is added to serve as food for the insects and 25 mL of moist soil is added to each jar. The jar is capped and the contents thoroughly mixed mechanically. Following this, ten 3rd instar rootworms are added to each jar and the jars are loosely capped to allow air exchange for the larvae. The treatments are held for 5 days when mortality counts are made. Missing larvae are presumed dead, since they decompose rapidly and can not be found. The concentrations of active ingredient used in this test correspond approximately to 50 kg/ha.

The subject of assay [2] is Aphis Fabae, Mixed Instar, Bean Aphid (BA). The experiment in a line: Bean aphid (BA) foliar spray test, mortality after 2 days. Particulars: rating scale; for pest or weed control at 300 ppm: Aphis fabae, 48 h, read-out: BA AD-FOLIAR 300 (ppm). The procedure:
(§1) Test solutions are prepared by dissolving the test compound in a 35% acetone in water mixture to give a concentration of 10,000 ppm. Subsequent dilutions are made with water as needed.
Aphis Fabae, Mixed Instar, Bean Aphid (BA)
Pots containing single nasturtium plants (Tropaeolum sp.) about 5 cm tall are infested with about 100-200 aphids one day before the test. Each pot is sprayed with the test solution for 2 revolutions of a 4 rpm turntable in a hood. The spray is directed to give complete coverage of the plants and aphids. The sprayed pots are set on their sides on white trays and held for 2 days, following which mortality estimates are made. Essentially the same method is used with respect to cotton aphid (CA).

Assay [3] relates to Tetranychus Urticae (OP-resistant strain), 2-spotted Spider Mite (TSM). The assay can be described thus: Two-spotted spider mite (TSM) plant-dip test, mortality after 2 days. Particulars: rating scale; for pest or weed control at 300 ppm: Tetranychus urticae, 48 h, read-out: TSM AD-FOLIAR 300 (ppm). The procedure: as §1
Tetranychus Urticae (OP-resistant strain), 2-spotted Spider Mite (TSM)
Sieva lima bean plants with primary leaves expanded to 7-8 cm are selected and cut back to one plant per pot. A small piece is cut from an infested leaf taken from the main colony and placed on each leaf of the test plants. This is done about 2 hours before treatment to allow the mites to move over to the test plant to lay eggs. The size of the cut, infested leaf is varied to obtain about 100 mites per leaf. At the time of test treatment, the piece of leaf used to transfer the mites is removed and discarded. The newly-infested plants are dipped in the test solution for 3 seconds with agitation and set in the hood to dry. After 2 days, one leaf is removed and mortality counts are made.

Assay [4] relates to Spodoptera Eridania, 3rd Instar Larvae, Southern Armyworm (SAW). The assay can be described thus: Southern armyworm (SAW) leaf-dip test, observations at 5 days. Particulars: Southern Army Worm, rating scale; for pest or weed control at 1000 ppm: Spodoptera eridania, foliar, 120 h, read-out: SAW 2^ND-FOLIAR 1000 (ppm). The protocol: as §1
Spodoptera Eridania, 3rd Instar Larvae, Southern Armyworm (SAW)
A Sieva lima bean leaf expanded to 7-8 cm in length is dipped in the test solution with agitation for 3 seconds and allowed to dry in a hood. The leaf is then placed in a 100×10 mm petri dish containing a damp filter paper on the bottom and ten 3rd instar caterpillars. At 5 days, observations are made of mortality, reduced feeding, or any interference with normal molting.

On to `FC(F)(F)c1ccc(Oc2nccc(-c3ccccc3)n2)cc1Cl` [Compound 7], for which the “WCR 2^ND-SOIL 50 (ppm)” value in assay [1] is on record as “C (C 76-100% kill)”.
For `FC(F)(F)c1cccc(-c2ccnc(Oc3ccc(Cl)c(Cl)c3)n2)c1` [Compound 18], the “BA AD-FOLIAR 300 (ppm)” value in assay [2] is listed as “A (A 0-45% kill)”. Also, the “TSM AD-FOLIAR 300 (ppm)” value in assay [3] is reported as “A (A 0-45% kill)”. For the same molecule, in assay [4], the “SAW 2^ND-FOLIAR 1000 (ppm)” value is reported as “A (A 0-45% kill)”.
Turning to `O=[N+]([O-])c1ccc(Oc2nccc(-c3cccc(C(F)(F)F)c3)n2)cc1C(F)(F)F` [Compound 19], the “BA AD-FOLIAR 300 (ppm)” value in assay [2] is “A (A 0-45% kill)”. For the same molecule, the “WCR 2^ND-SOIL 50 (ppm)” value in assay [1] was “C (C 76-100% kill)”.
In the same order, the values of `CC(C)(C)c1ccc(-c2ccnc(Oc3ccc(F)c(C(F)(F)F)c3)n2)cc1` [Compound 24] are “A (A 0-45% kill)” and “C (C 76-100% kill)”.
For the molecule `CC(C)(C)c1ccc(-c2ccnc(Oc3ccc(Cl)c(Cl)c3)n2)cc1` [Compound 27], the “BA AD-FOLIAR 300 (ppm)” value in assay [2] is on record as “B (B 45-75% kill)”. For the same molecule, the “WCR 2^ND-SOIL 50 (ppm)” value in assay [1] is recorded as “C (C 76-100% kill)”.
Regarding `Fc1ccc(Oc2nccc(-c3ccc(C(F)(F)F)cc3)n2)cc1C(F)(F)F` [Compound 29], the “BA AD-FOLIAR 300 (ppm)” value in assay [2] is “A (A 0-45% kill)”. Moreover, the “TSM AD-FOLIAR 300 (ppm)” value in assay [3] is “B (B 45-75% kill)”. Further, the “SAW 2^ND-FOLIAR 1000 (ppm)” value in assay [4] is given as “A (A 0-45% kill)”.
On to `FC(F)(F)c1ccc(-c2ccnc(Oc3cccc(C(F)(F)F)c3)n2)cc1` [Compound 30], for which the “BA AD-FOLIAR 300 (ppm)” value in assay [2] is “A (A 0-45% kill)”. Moreover, the “TSM AD-FOLIAR 300 (ppm)” value in assay [3] is listed as “B (B 45-75% kill)”. Further, the “SAW 2^ND-FOLIAR 1000 (ppm)” value in assay [4] is reported as “A (A 0-45% kill)”.
As to `COc1ccc(-c2ccnc(Oc3ccc(Cl)c(C(F)(F)F)c3)n2)cc1` [Compound 35], the “WCR 2^ND-SOIL 50 (ppm)” value in assay [1] was “C (C 76-100% kill)”.
`Fc1ccc(Oc2nccc(-c3ccc(OC(F)(F)F)cc3)n2)cc1C(F)(F)F` [Compound 47]: the “BA AD-FOLIAR 300 (ppm)” value in assay [2] is reported as “A (A 0-45% kill)”. The “TSM AD-FOLIAR 300 (ppm)” value in assay [3] is on record as “B (B 45-75% kill)”. Also, in assay [4], the “SAW 2^ND-FOLIAR 1000 (ppm)” value is on record as “A (A 0-45% kill)”.
As to `FC(F)(F)Oc1ccc(-c2ccnc(Oc3cccc(C(F)(F)F)c3)n2)cc1` [Compound 48], the “BA AD-FOLIAR 300 (ppm)” value in assay [2] was “B (B 45-75% kill)”. In addition, the “TSM AD-FOLIAR 300 (ppm)” value in assay [3] is reported as “B (B 45-75% kill)”. The “SAW 2^ND-FOLIAR 1000 (ppm)” value in assay [4] was “A (A 0-45% kill)”.
Consider `O=[N+]([O-])c1ccc(Oc2nccc(-c3ccc(OC(F)(F)F)cc3)n2)cc1C(F)(F)F` [Compound 49], for which the “BA AD-FOLIAR 300 (ppm)” value in assay [2] was “B (B 45-75% kill)”. The “TSM AD-FOLIAR 300 (ppm)” value in assay [3] is listed as “B (B 45-75% kill)”.
For the molecule `Fc1cc(-c2ccnc(Oc3ccc(Cl)c(C(F)(F)F)c3)n2)cc(C(F)(F)F)c1` [Compound 51], the “WCR 2^ND-SOIL 50 (ppm)” value in assay [1] was “C (C 76-100% kill)”. Further, the “SAW 2^ND-FOLIAR 1000 (ppm)” value in assay [4] is “B (B 45-75% kill)”.
On to `Fc1cc(-c2ccnc(Oc3ccccc3)n2)cc(C(F)(F)F)c1` [Compound 54], for which the “BA AD-FOLIAR 300 (ppm)” value in assay [2] is “C (C 76-100% kill)”. The “TSM AD-FOLIAR 300 (ppm)” value in assay [3] was “C (C 76-100% kill)”. For the same molecule, the “SAW 2^ND-FOLIAR 1000 (ppm)” value in assay [4] is “C (C 76-100% kill)”.
Regarding `Fc1cc(-c2ccnc(Oc3ccc(F)c(Cl)c3)n2)cc(C(F)(F)F)c1` [Compound 56], the “WCR 2^ND-SOIL 50 (ppm)” value in assay [1] is “B (B 45-75% kill)”.
The same measure, in the same setting: the same measure for `O=[N+]([O-])c1ccc(Oc2nccc(-c3cc(F)cc(C(F)(F)F)c3)n2)cc1C(F)(F)F` [Compound 57]: “C (C 76-100% kill)”.
`Fc1cc(-c2ccnc(Oc3cc(Cl)cc(Cl)c3)n2)cc(C(F)(F)F)c1` [Compound 59]: in assay [2], the “BA AD-FOLIAR 300 (ppm)” value is recorded as “B (B 45-75% kill)”. In addition, the “WCR 2^ND-SOIL 50 (ppm)” value in assay [1] was “C (C 76-100% kill)”.
Take `Fc1cc(-c2ccnc(Oc3cc(C(F)(F)F)cc(C(F)(F)F)c3)n2)cc(C(F)(F)F)c1` [Compound 60]: the “WCR 2^ND-SOIL 50 (ppm)” value in assay [1] is reported as “C (C 76-100% kill)”. For the same molecule, the “SAW 2^ND-FOLIAR 1000 (ppm)” value in assay [4] was “C (C 76-100% kill)”.
For `CSc1cc(-c2ccc(Cl)c(Cl)c2)nc(Oc2ccc(F)c(C(F)(F)F)c2)n1` [Compound 85, 2-(3-Trifluoromethyl-4-fluorophenoxy)-4-(3,4-dichlorophenyl)-6-thiomethylpyrimidine], the pest or weed control at 50 ppm in assay [1] was 76 to 100%.
On the same count and under the same terms, the same measure for `CS(=O)(=O)c1cc(-c2ccc(Cl)c(Cl)c2)nc(Oc2ccc(F)c(C(F)(F)F)c2)n1` [Compound 92, 2-(3-trifluoromethyl-4-fluorophenoxy)-4-(3,4-dichlorophenyl)-6-methylsulfonylpyrimidine]: 76 to 100%; for `CSc1cc(-c2ccc(Cl)cc2)nc(Oc2ccc(F)c(C(F)(F)F)c2)n1` [Compound 114]: 76 to 100%.
`Fc1ccc(Oc2nccc(-c3ccc(Cl)cc3)n2)cc1C(F)(F)F` [Compound 115]: the pest or weed control at 300 ppm in assay [3] lay in the range of 45 to 75%. Moreover, the pest or weed control at 1000 ppm in assay [4] lay in the range of 0 to 45%.
`FC(F)(F)c1cccc(Oc2nccc(-c3ccc(Cl)cc3)n2)c1` [Compound 116]: in assay [3], the pest or weed control at 300 ppm lay within 45 to 75%. The pest or weed control at 1000 ppm in assay [4] was in the range of 0 to 45%.
Consider `CSc1cc(-c2cccc(Cl)c2)nc(Oc2ccc(Cl)c(C(F)(F)F)c2)n1` [Compound 125], for which the “WCR 2^ND-SOIL 50 (ppm)” value in assay [1] is recorded as “B (B 45-75% kill)”.
Consider `FC(F)(F)c1cccc(Oc2nccc(-c3ccccc3)n2)c1` [Compound 128], for which the pest or weed control at 300 ppm in assay [2] lay in the range of 45 to 75%; in assay [3] it was 76 to 100%.
Consider `CCc1cnc(Oc2cccc(C(F)(F)F)c2)nc1-c1ccc(Cl)cc1` [Compound 131], for which the pest or weed control at 50 ppm in assay [1] was 76 to 100%. In addition, the pest or weed control at 1000 ppm in assay [4] was 0 to 45%.
Regarding `CCc1cnc(Oc2ccc(F)c(C(F)(F)F)c2)nc1-c1ccc(Cl)cc1` [Compound 132], the pest or weed control at 300 ppm in assay [2] was 76 to 100%; in assay [3] it was 45 to 75%. In addition, in assay [4], the pest or weed control at 1000 ppm fell in the range of 0 to 45%.
In the same order, the values of `Fc1ccc(-c2ccnc(Oc3ccc(C(F)(F)F)c(F)c3)n2)cc1` [Compound 135] are 0 to 45%, 0 to 45% and 0 to 45%.
Turning to `Fc1ccc(-c2ccnc(Oc3cccc(C(F)(F)F)c3)n2)cc1` [Compound 136], in assay [3], the pest or weed control at 300 ppm was 0 to 45%. In assay [4], the pest or weed control at 1000 ppm is 0 to 45%.
`Fc1ccc(Oc2nccc(-c3ccc(Cl)cc3)n2)cc1F` [Compound 139]: the pest or weed control at 300 ppm in assay [2] was in the range of 76 to 100%. For the same molecule, the pest or weed control at 50 ppm in assay [1] fell in the range of 76 to 100%.
On to `O=[N+]([O-])c1cccc(Oc2nccc(-c3ccc(Cl)cc3)n2)c1` [Compound 140], for which the pest or weed control at 300 ppm in assay [2] lay in the range of 0 to 45%; in assay [3] it was 45 to 75%.
For `Cc1ccc(-c2ccnc(Oc3cccc(C(F)(F)F)c3)n2)cc1` [Compound 147] the same measures were 76 to 100% and 76 to 100%.
For `Fc1ccc(Oc2nccc(-c3ccc(Cl)cc3)n2)cc1Cl` [Compound 150] the same measures were 45 to 75% and 76 to 100%.
As for `CCc1cnc(Oc2ccc(F)c(C(F)(F)F)c2)nc1-c1cccc(C(F)(F)F)c1` [Compound 156], the pest or weed control at 300 ppm was 76 to 100% in assay [2] and 45 to 75% in assay [3]. Further, the pest or weed control at 1000 ppm in assay [4] is 0 to 45%.
For `CCCc1cnc(Oc2cccc(C(F)(F)F)c2)nc1-c1cccc(C(F)(F)F)c1` [Compound 159], in assay [3], the pest or weed control at 300 ppm is 45 to 75%. Moreover, the pest or weed control at 1000 ppm in assay [4] was in the range of 0 to 45%.
